The values that follow come from PMC10388362, “Fluorescent Ligands Enable Target Engagement Studies for the Intracellular Allosteric Binding Site of the Chemokine Receptor CXCR2” (Journal of Medicinal Chemistry, 2023).

Assay [1] addresses T1, CXCR2 (Homo sapiens, UniProt P25025).
T1 construct: Promega pNLF1-C (Nluc) #CXCR20TN00; host or cells: HEK293T, transient transfection (PEI)
T1 sequence (P25025 1-360): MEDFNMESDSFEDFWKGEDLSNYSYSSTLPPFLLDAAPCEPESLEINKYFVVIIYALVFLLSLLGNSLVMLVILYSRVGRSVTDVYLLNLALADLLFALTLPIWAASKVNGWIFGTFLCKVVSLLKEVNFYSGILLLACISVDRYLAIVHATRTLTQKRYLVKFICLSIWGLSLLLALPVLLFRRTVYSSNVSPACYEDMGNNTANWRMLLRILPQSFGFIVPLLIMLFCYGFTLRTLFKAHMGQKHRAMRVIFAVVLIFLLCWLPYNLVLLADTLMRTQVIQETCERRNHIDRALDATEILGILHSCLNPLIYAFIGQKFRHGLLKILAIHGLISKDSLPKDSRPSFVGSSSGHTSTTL
The assay can be described thus: Membrane-based NanoBRET saturation assay (CXCR2_Nluc membranes). In kind it is binding. To be noted: cell-free, membranes from HEK293T cells transiently expressing CXCR2_Nluc; read-out: Kd (equilibrium saturation binding). As to the method: Membranes from HEK293T cells transiently expressing the respective GPCR were prepared as follows. The medium of the transfected cells was refreshed after 24 h before cells were harvested 48 h post-transfection. The growth medium was removed, and the cells were carefully washed with cold phosphate-buffered saline (10 mL per Ø 15 cm dish). The cells were detached with 15 mL of ice-cold Tris-EDTA buffer (10 mM Tris, 0.5 mM EDTA, 5.4 mM KCl, 140 mM NaCl, pH 7.4) and subsequently centrifuged with 218g for 8 min. The supernatant was removed and the cells were resuspended in 10 mL of Tris-EDTA buffer. The cells were lysed with an Ultraturrax (20,000 rpm) used five times for 5 s with a 25 s break on ice in between. The lysate was centrifuged at 50,830g for 18 min at 4 °C. The supernatant was discarded, and the pellet was homogenized in a membrane buffer (50 mM Tris, 1 mM EDTA, 5 mM MgCl2, 100 μg/mL bacitracin, 5 μg/mL soybean trypsin inhibitor, pH 7.4) with a glass-teflon homogenizer. Aliquots of 250 μL were shock-frozen in liquid nitrogen and directly stored at −80 °C. Finally, the protein concentration was determined using the Lowry method.[43]
(§1) For the establishment of our NanoBRET binding assay, we referred to a recently published protocol.[45] The fluorescent ligands (9a–c) were dissolved in DMSO (1 mM) and further diluted to varying concentrations in an assay buffer (50 mM Na2HPO4, 50 mM KH2PO4, pH 7.4, 1 mg/mL saponin, 5% FBS) and 5 μL of these dilutions were pipetted to a 384-well plate. To determine the total binding, 5 μL of the assay buffer was added to the corresponding wells, while 5 μL of a solution of 3 in the assay buffer (final assay concentration: 1 μM) was used to determine nonspecific binding. Then, 20 μL of the membrane preparations diluted in the assay buffer (2 μg total protein/well) were added and the plates were incubated for 90 min at 37 °C. Subsequently, 5 μL of a furimazine solution (Promega, Mannheim, Germany, final assay dilution: 1:5000) was added to each well (final assay volume: 35 μL) before measuring luminescence with a CLARIOstar microplate reader using 620/10 and 475/30 nm emission filters after 5 min of incubation in the dark. Bioluminescence resonance energy transfer (BRET) was determined as the ratio of acceptor fluorescence and donor luminescence. The algorithms for one-site saturation binding from PRISM9.5 (GraphPad) were utilized to analyze total, nonspecific, and specific binding. Specific binding signals were calculated as a difference of total and nonspecific binding. If required, netBRET values were calculated as the difference between total BRET values and the values obtained in the absence of a fluorescent ligand. For selectivity studies with CCR2, CCR7, CCR9, and CXCR1, we modified the procedure described above.

Assay [2] has as its target T2, CXCR1 (Homo sapiens, UniProt P25024).
T2 construct: host or cells: HEK293T, transient; membrane preparation
T2 sequence (P25024 1-350): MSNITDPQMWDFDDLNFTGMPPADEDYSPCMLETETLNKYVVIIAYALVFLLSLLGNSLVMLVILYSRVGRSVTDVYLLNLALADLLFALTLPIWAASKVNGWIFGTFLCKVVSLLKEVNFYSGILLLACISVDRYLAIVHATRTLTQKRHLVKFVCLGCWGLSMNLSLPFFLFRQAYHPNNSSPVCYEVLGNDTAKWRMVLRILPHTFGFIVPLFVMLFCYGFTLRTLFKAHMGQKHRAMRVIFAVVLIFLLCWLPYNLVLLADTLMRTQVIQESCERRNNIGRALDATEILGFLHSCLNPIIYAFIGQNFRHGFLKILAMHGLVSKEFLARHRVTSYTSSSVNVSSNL
Put plainly: Membrane-based NanoBRET saturation assay, selectivity (CXCR1_Nluc membranes). The class given is binding. To be noted: cell-free. As to the method:
as §1

Assay [3] addresses T3, CCR2 (Homo sapiens, UniProt P41597).
T3 construct: host or cells: HEK293T; membrane preparation
T3 sequence (P41597 1-360 isoform P41597-2): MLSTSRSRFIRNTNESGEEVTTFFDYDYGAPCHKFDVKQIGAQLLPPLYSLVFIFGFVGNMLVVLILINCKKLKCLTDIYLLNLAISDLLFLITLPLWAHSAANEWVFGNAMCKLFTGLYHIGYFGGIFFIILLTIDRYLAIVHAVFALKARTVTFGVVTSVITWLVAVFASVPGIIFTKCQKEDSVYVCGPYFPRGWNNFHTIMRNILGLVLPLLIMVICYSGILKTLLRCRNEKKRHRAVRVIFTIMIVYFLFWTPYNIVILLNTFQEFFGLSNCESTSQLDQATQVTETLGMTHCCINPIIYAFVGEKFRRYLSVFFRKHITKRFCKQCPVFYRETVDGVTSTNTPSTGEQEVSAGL
Put plainly: Membrane-based NanoBRET saturation assay, selectivity (CCR2_GSSG_Nluc membranes). The method, then: as §1, with “The algorithms for one-site saturation binding from PRISM9.5 (GraphPad) were utilized to analyze total, nonspecific, and specific binding.” left out, “For selectivity studies with CCR2, CCR7, CCR9, and CXCR1, we modified the procedure described above.” left out
For orientation: Bioluminescence resonance energy transfer reports proximity on the nanometre scale.

Structures are written as SMILES.

As for `Cc1ccc([C@H](Nc2c(Nc3cccc(C(=O)NCc4cn(CCOCCOCCOCCNC(=O)c5ccc(C(=O)[O-])c(-c6c7ccc(=[N+](C)C)cc-7oc7cc(N(C)C)ccc67)c5)nn4)c3O)c(=O)c2=O)C(C)(C)C)o1` [9a, (R)-4-((2-(2-(2-(2-(4-((3-((2-((2,2-Dimethyl-1-(5-methylfuran-2-yl)propyl)amino)-3,4-dioxocyclobut-1-en-1-yl)amino)-2-hydroxybenzamido)methyl)-1H-1,2,3-triazol-1-yl)ethoxy)ethoxy)ethoxy)ethyl)carbamoyl)-2-(6-(dimethylamino)-3-(dimethyliminio)-3H-xanthen-9-yl)benzoate], the Kd in assay [1] was determined as 4.17 ± 0.8 nM; in assay [2] (CXCR1_Nluc membranes), 198 ± 29 nM. For the same compound, the “selectivity for CXCR2 compared to CXCR1” value in assay [2] (from Kd values) was about 50 fold. Besides, the “binding to CCR2” value in assay [3] was “no significant binding”.
